Experiments:
[1] = Drug release studies, polymer-drug-clay extrudate (Example 3); type: physicochemical
Description: PEGIB is PEG+ibuprofen, PEGIBM is PEG+ibuprofen+montmorillonite (natural clay) and PEGIBS is PEG+ibuprofen+synthetic clay. In one embodiment the extrudate is rod shaped with a diameter of 1 mm.
In one embodiment the extrudate is rod shaped with a diameter of 1 mm.

[2] = Drug release studies, polymer-drug-clay disks (Example 3); type: physicochemical
Description: In a one embodiment the discs were 18 mm in diameter and 1 mm thick. Different sizes or shapes of discs will influence the release rate of the drug.

Row | SMILES | Time 50% release ([1]; PCL-Paracetamol-Clay Extrudate) | Time 80% release ([1]; PCL-Paracetamol-Clay Extrudate) | Time 100% release ([1]; PCL-Paracetamol-Clay Extrudate) | Time 50% release ([1]; PEG-Paracetamol-Clay Extrudate) | Time 80% release ([1]; PEG-Paracetamol-Clay Extrudate) | Time 100% release ([1]; PEG-Paracetamol-Clay Extrudate) | Time 50% release ([2]; PCL-Paracetamol-Clay Disks) | Time 80% release ([2]; PCL-Paracetamol-Clay Disks) | Time 100% release ([2]; PCL-Paracetamol-Clay Disks) | Time 50% release ([2]; PEG-Paracetamol-Clay Disks) | Time 80% release ([2]; PEG-Paracetamol-Clay Disks) | Time 100% release ([2]; PEG-Paracetamol-Clay Disks) | Time 50% release ([1]; PEG-Ibuprofen-Clay Extrudate) | Time 80% release ([1]; PEG-Ibuprofen-Clay Extrudate) | Time 100% release ([1]; PEG-Ibuprofen-Clay Extrudate) | Time 50% release ([2]; PEG-Ibuprofen-Clay Disks) | Time 80% release ([2]; PEG-Ibuprofen-Clay Disks) | Time 100% release ([2]; PEG-Ibuprofen-Clay Disks)
1 | CC(=O)Nc1ccc(O)cc1 [Paracetamol powder, paracetamol] | <5 min | <5 min | <5 min | <5 min | <5 min | <5 min | <5 min | <5 min | <5 min | <5 min | <5 min | <5 min |  |  |  |  |  | 
2 | CC(C)Cc1ccc(C(C)C(=O)O)cc1 (stereo not drawn) [Ibuprofen Powder, ibuprofen] |  |  |  |  |  |  |  |  |  |  |  |  | <5 min | <5 min | 10 min | <5 min | <5 min | 10 min

— patent US20060147538A1, “Nanocomposite drug delivery composition” (THE QUEEN'S UNIVERSITY OF BELFAST, priority 2003, published 2006)
